# Experiments:
# [1] = biological target: recombinant BACE1 protein (Homo sapiens (Human), UniProt P56817); assay: BACE1 Biochemical FRET based assay - Method 1; conditions: 1 μg/ml BACE1, 10 μM substrate, 120 min, pH 5.0; read-out: BACE1 Biochemical FRET based assay - Method 1 pIC50 (converted)
# Source text: (§1) This assay is a Fluorescence Resonance Energy Transfer Assay (FRET) based assay. The substrate for this assay is an APP derived 13 amino acids peptide that contains the ‘Swedish’ Lys-Met/Asn-Leu mutation of the amyloid precursor protein (APP) beta-secretase cleavage site. This substrate also contains two fluorophores: (7-methoxycoumarin-4-yl) acetic acid (Mca) is a fluorescent donor with excitation wavelength at 320 nm and emission at 405 nm and 2,4-Dinitrophenyl (Dnp) is a proprietary quencher acceptor. […] Upon cleavage by BACE1, the fluorophore Mca is separated from the quenching group Dnp, restoring the full fluorescence yield of the donor. The increase in fluorescence is linearly related to the rate of proteolysis.
# Briefly in a 384-well format recombinant BACE1 protein in a final concentration of 1 μg/ml is incubated for 120 minutes at room temperature with […] substrate in incubation buffer (40 mM Citrate buffer pH 5.0, 0.04% PEG, 4% DMSO) in the absence or presence of compound. Next the amount of proteolysis is directly measured by fluorescence measurement at T=0 and T=120 (excitation at 320 nm and emission at 405 nm). Results are expressed in RFU (Relative Fluorescence Units), as difference between T120 and TO.
# [2] = system: Abeta 1-42 secreted by human neuroblastoma SKNBE2 cells expressing wild type hAPP695; assay: BACE1 cellular αLisa assay in SKNBE2 cells, Abeta 1-42; format: cell-based; conditions: Homo sapiens, 18 hours incubation, read-out: Cellular αLisa assay in SKNBE2 cells Abeta 42 pIC50 (converted)
# Protocol: In two αLisa assays the levels of Abeta total and Abeta 1-42 produced and secreted into the medium of human neuroblastoma SKNBE2 cells are quantified. The assay is based on the human neuroblastoma SKNBE2 expressing the wild type Amyloid Precursor Protein (hAPP695). The compounds are diluted and added to these cells, incubated for 18 hours and then measurements of Abeta 1-42 and Abeta total are taken. Abeta total and Abeta 1-42 are measured by sandwich αLisa. αLisa is a sandwich assay using biotinylated antibody AbN/25 attached to streptavidin coated beads and antibody Ab4G8 or cAb42/26 conjugated acceptor beads for the detection of Abeta total and Abeta 1-42 respectively. In the presence of Abeta total or Abeta 1-42, the beads come into close proximity. The excitation of the donor beads provokes the release of singlet oxygen molecules that trigger a cascade of energy transfer in the acceptor beads, resulting in light emission.
# [3] = biological target: recombinant BACE2 protein (Homo sapiens (Human), UniProt Q9Y5Z0); assay: BACE2 Biochemical FRET based assay; conditions: 0.4 μg/ml BACE2, 10 μM substrate, 450 min, pH 5.0
# Source text: as §1, with “assay” for “assay is an APP derived 13 amino acids peptide that”, “the beta-secretase,” for “BACE1,”
# Briefly in a 384-well format recombinant BACE2 protein in a final concentration of 0.4 μg/ml is incubated for 450 minutes at room temperature with 10 μM substrate in incubation buffer (50 mM Citrate buffer pH 5.0, 0.05% PEG, no DMSO) in the absence or presence of compound. Next the amount of proteolysis is directly measured by fluorescence measurement at T=0 and T=450 (excitation at 320 nm and emission at 405 nm). Results are expressed in RFU (Relative Fluorescence Units), as difference between T450 and TO.
# recombinant BACE2 protein, sequence (Q9Y5Z0 63-518): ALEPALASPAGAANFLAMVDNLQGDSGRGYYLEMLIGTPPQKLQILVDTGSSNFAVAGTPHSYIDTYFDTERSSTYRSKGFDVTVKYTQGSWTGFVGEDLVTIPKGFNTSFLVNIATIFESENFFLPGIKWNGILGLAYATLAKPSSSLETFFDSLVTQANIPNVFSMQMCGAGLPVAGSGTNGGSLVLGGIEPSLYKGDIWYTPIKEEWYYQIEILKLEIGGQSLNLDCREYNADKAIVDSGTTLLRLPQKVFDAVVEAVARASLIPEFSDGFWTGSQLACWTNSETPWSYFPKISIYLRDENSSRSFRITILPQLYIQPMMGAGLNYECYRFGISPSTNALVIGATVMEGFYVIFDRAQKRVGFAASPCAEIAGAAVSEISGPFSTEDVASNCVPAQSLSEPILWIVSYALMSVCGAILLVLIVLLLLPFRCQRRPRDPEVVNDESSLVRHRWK
# recombinant BACE1 protein, sequence (P56817 46-501): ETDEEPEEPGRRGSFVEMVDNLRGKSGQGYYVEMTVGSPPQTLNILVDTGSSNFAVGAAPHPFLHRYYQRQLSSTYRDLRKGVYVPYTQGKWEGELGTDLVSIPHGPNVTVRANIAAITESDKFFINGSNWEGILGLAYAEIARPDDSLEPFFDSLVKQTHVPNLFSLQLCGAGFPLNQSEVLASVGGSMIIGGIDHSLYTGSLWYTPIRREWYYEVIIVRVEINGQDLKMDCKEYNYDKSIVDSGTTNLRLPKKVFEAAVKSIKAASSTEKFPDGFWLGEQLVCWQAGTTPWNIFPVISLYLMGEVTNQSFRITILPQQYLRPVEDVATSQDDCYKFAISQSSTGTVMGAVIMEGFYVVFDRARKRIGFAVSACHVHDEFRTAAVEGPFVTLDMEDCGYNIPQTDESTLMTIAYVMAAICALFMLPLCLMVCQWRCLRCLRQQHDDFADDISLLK
structure (smiles),measurement,setting,value
"C[C@@]1(c2cc(NC(=O)c3ccc(F)cn3)ccc2F)Cn2nncc2C(N)=N1 [Compound 1, N-{3-[(6R)-4-amino-6-methyl-6,7-dihydro[1,2,3]triazolo[1,5-a]pyrazin-6-yl]-4-fluorophenyl}-5-fluoropyridine-2-carboxamide]",IC50,[1],5.25 nM
same,IC50,[2],4.47 nM
same,BACE2 Biochemical FRET based assay pIC50,[3],8.48
